The source made the active and inactive calls.
Key:
[1] = luciferase reporter signal suppression in cells – H4 neuroglioma cells, luminescence, dose response (AID 1990); format: functional, cell-based
[2] = luciferase reporter signal reduction – luminescence, H4-C neuroglioblastoma cells, dose response (AID 2458); format: functional, cell-based;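 further: H4 neuroglioblastoma cells stably carrying a luciferase reporter gene fusion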
BJ [3] = experiment: BJ-TERT fibroblast viability loss – cell-based, RAS-independent, luminescence, dose response (AID 1933); format: functional; details: Homo sapiens
[4] = molecular target: Luciferin 4-monooxygenase (Photinus pyralis, UniProt P08659); experiment: Counter Screen for Luciferase-based Assay Positives. [Related pubchem assays: 620, 618, 411 ]
[5] = molecular target: Glyceraldehyde-3-phosphate dehydrogenase (Homo sapiens, UniProt P04406)
cells = format: functional, cell-based
[6] = Luminescence Cell-Based Dose Response HTS to Identify Inhibitors of 5'UTR Stem-Loop Driven Prion Protein mRNA Translation in H4 Neuroglioblastoma Cells. [Related pubchem assays: 1827 (Project Summary), 1813 (Primary HTS)]; format: functional
[7] = alpha-synuclein stem-loop luciferase translation blockers – H4 neuroglioma cells, luminescence, confirmation (AID 1988); format: functional, cell-based
BJ [8] = experiment: cells; format: functional, cell-based; details: Homo sapiens
[9] = Luminescence-based counterscreen assay for KLF5 inhibitors: dose response cell-based high throughput screening assay to identify cytotoxic compounds using the IEC-6 intestinal epithelial cell line. [Related pubchem assays: 1700 (Primary screen.), 1834 (Confirmation screen.), 1858 (Summary AID.), 1905 (Counterscreen.)]; format: functional
HT-1080 = experiment: HT1080 cell viability loss – fluorescence readout (AID 620); format: functional, cell-based; details: Homo sapiens
BJ [10] = experiment: BJ-TERT-LT-ST fibroblast viability loss – cell-based, RAS-independent, luminescence, dose response (AID 1935); format: functional; details: Homo sapiens;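 further: BJ fibroblasts immortalized with TERT plus LT and ST oncogenes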
[11] = DRD fibroblast viability loss – cell-based, non-viral oncogenic, luminescence, dose response (AID 1934); format: functional; details: Homo sapiens
[12] = alpha-synuclein stem-loop translation blockers – luminescence, H4 neuroglioblastoma cells, dose confirmation, confirmation (AID 2454); format: functional, cell-based;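 further: H4 neuroglioblastoma cells carrying an alpha-synuclein 5'UTR luciferase reporter; potency for inhibition of the luciferase signal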
[13] = molecular target: T1, Microphthalmia-associated transcription factor (Homo sapiens, UniProt O75030); experiment: reducers of TRPM1 reporter luminescence, concentration series – cell-based, SK-MEL-5, cherry-picked, set 3, MITF inhibitor project, dose response (AID 493073); format: functional;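 further: SK-MEL-5 melanoma cells with luciferase driven by the MITF target TRPM1 promoter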
T1 sequence (O75030 whole entry): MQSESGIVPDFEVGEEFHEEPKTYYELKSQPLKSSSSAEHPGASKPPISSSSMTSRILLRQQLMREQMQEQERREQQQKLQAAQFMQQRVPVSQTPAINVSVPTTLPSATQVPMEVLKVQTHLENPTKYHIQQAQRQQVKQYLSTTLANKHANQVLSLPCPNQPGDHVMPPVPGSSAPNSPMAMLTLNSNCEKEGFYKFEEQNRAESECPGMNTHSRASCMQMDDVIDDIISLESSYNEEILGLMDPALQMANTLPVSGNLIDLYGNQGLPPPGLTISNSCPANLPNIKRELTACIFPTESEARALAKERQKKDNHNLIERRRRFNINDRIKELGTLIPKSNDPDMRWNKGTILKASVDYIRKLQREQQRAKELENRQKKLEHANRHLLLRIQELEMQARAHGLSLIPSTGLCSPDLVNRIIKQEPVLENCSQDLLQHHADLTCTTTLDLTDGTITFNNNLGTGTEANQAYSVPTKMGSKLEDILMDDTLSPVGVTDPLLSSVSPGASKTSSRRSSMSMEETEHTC

BJ [14] = experiment: growth inhibition of engineered Ras-driven BJ cells – cell-based, alamar blue fluorescence, cherrypicked samples, dose response (AID 2631); format: functional; details: Homo sapiens;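 further: confirmatory dose-response assay in RAS-dependent BJ fibroblasts engineered with TERT, LT and ST, with cytotoxicity read by fluorescence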
A-375 = experiment: MITF: Counter assay: A375 proliferation Measured in Cell-Based System Using Plate Reader - 2084-03_Inhibitor_Dose_DryPowder_Activity. [Related pubchem assays (depositor defined):AID488944]; format: functional; details: Homo sapiens
[15] = A549 cell cytotoxicity, dose response, cytotoxicity control, plate reader, cherry-pick, antagonist series (AID 743412); format: functional, cell-based
[16] = toxicity toward HepG2 liver cells – cell-based, plate reader, cherry-pick, antagonist series, cytotoxicity control, dose response (AID 743416); format: functional
[17] = blockers of bursicon-stimulated LGR2 cAMP reporter – cell-based, HEK293, CRE-luciferase reporter, cherry pick, set 2, dose response (AID 743343); format: functional;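 further: transfected cells were stimulated with diluted bursicon conditioned medium after compound addition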
[18] = blockade of melanocortin 4 receptor signaling – cell-based, plate reader, cherry pick, counter-screen for LGR2 antagonist project, dose response (AID 743444); format: functional;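 further: transfected HEK 293 cells stimulated with alpha-MSH peptide; potency of inhibitors of the alpha-MSH evoked signal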
[19] = viability loss in HEK293 cells – cell-based, plate reader, cherry-picked samples, cytotoxicity control, dose response (AID 743446); format: functional
[20] = molecular target: Neuropeptide Y receptor type 1 (Homo sapiens, UniProt P25929); format: functional;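 further: HEK293 cells with a CNG channel challenged with NPY then isoproterenol; potency as antagonist that reverses NPY suppression of cAMP signal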
[21] = molecular target: Neuropeptide Y receptor type 2 (Homo sapiens, UniProt P49146); format: functional, cell-based;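 further: HEK293 cells expressing the receptor and a CNG channel; stimulus was NPY near EC95 followed by isoproterenol to raise cAMP; antagonist potency measured as restoring cAMP signal that NPY suppresses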
[22] = molecular target: T2, Alkaline phosphatase, tissue-nonspecific isozyme (Homo sapiens, UniProt P05186)
T2 sequence (P05186 whole entry): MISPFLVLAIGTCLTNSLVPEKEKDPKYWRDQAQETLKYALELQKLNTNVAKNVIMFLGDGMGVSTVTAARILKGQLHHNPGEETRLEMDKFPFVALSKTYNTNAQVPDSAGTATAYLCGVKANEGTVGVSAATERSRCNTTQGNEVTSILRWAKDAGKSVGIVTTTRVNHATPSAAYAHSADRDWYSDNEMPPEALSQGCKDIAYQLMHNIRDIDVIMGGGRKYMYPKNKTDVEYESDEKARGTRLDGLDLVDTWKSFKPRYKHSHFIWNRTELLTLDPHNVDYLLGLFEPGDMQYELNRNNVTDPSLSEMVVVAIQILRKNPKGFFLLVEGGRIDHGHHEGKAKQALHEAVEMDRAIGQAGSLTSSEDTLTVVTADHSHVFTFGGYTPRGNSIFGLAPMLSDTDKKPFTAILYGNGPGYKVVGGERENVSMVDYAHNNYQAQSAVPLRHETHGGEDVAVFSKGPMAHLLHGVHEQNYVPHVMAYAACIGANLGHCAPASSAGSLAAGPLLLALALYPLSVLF

[23] = mRNA 3' processing disruption, beta-gal signal increase – luminescence, S. cerevisiae SKY197-pL101, dose response (AID 2525); format: functional, cell-based
[24] = Luminescence Cell-Based Dose Confirmation HTS to Identify Inhibitors of Polyadenylation.; format: functional
[25] = molecular target: Mothers against decapentaplegic homolog 3 (Homo sapiens, UniProt P84022); experiment: blockers of Smad3 complex formation in lysate – cell lysate, secondary confirmation, chemiluminescent ELISA, HEK293 lysate, dose response (AID 1058); format: functional
Sequence of Mothers against decapentaplegic homolog 3 (P84022 whole entry): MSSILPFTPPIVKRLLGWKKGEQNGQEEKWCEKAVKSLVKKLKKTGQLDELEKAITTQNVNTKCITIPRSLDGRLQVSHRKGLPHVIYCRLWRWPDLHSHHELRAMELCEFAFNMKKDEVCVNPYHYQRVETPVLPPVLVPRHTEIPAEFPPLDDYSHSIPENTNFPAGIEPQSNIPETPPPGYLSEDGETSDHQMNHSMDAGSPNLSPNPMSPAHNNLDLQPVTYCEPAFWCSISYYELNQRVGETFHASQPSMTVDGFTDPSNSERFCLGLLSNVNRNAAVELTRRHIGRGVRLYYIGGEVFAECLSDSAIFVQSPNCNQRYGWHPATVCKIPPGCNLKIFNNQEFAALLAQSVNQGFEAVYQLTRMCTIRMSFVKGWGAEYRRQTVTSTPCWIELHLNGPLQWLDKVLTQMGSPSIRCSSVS

Sequence of Glyceraldehyde-3-phosphate dehydrogenase (P04406 whole entry): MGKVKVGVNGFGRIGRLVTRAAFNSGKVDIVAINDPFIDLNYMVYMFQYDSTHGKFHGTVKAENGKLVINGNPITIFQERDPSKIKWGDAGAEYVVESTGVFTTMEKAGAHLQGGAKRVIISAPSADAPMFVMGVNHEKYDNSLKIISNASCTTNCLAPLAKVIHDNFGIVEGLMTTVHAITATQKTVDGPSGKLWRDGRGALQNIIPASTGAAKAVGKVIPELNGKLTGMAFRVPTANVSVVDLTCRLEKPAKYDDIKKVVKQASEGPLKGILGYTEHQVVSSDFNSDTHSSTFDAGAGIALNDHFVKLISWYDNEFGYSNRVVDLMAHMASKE
Sequence of Neuropeptide Y receptor type 1 (P25929 whole entry): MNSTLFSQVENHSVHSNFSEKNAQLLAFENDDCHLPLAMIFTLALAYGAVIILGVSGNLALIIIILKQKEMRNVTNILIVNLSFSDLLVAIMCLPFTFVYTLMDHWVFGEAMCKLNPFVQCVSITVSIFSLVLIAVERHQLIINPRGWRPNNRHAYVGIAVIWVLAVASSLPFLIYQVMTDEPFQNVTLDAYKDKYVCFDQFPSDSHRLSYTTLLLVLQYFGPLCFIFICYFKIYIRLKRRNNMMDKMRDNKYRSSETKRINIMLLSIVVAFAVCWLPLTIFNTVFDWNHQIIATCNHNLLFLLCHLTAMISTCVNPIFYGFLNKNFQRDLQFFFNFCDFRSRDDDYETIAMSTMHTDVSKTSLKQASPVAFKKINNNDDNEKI
Sequence of Luciferin 4-monooxygenase (P08659 whole entry): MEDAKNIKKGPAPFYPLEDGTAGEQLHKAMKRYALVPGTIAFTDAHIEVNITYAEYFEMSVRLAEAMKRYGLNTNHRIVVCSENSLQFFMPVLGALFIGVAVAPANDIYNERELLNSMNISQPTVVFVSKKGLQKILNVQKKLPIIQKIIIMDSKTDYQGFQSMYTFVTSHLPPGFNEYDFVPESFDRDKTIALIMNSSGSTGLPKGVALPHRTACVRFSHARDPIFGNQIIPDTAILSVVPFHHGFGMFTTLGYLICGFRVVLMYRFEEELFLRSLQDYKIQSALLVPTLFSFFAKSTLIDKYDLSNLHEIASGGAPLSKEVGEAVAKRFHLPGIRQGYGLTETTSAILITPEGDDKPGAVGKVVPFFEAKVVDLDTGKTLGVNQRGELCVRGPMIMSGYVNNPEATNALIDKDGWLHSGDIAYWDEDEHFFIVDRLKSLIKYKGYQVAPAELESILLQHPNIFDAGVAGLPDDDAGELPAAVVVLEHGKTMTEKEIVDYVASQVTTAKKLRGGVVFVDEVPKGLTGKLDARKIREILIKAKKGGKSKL
Sequence of Neuropeptide Y receptor type 2 (P49146 whole entry): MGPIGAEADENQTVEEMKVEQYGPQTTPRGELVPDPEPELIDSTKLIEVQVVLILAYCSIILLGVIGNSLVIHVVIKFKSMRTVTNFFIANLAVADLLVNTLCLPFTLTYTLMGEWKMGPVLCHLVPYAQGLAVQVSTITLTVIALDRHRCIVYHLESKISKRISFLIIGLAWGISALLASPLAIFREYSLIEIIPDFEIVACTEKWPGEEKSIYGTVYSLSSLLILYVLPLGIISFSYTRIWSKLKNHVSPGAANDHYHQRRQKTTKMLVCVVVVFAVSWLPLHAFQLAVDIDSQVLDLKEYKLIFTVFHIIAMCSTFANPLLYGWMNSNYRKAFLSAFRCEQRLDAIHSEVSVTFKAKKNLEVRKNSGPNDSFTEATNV

Cc1ccc(-c2nnc(SCC(=O)Nc3ccccc3F)o2)cc1
> 50 µM (not active): EC50 (HT-1080)
inactive: EC50 (BJ [14]) > 133 µM
inconclusive: EC50 [2] > 12 µM | EC50 [11] 7.36 µM | EC50 [12] > 12 µM
34.7 µM (not active): IC50 [9]
active: EC50 [1] < 0.195 µM | EC50 (BJ [3]) 10.2 µM | EC50 [4] 9.52 µM | EC50 (cells) 0.839 µM | EC50 [6] < 0.1 µM | EC50 [7] < 0.1 µM | EC50 (BJ [8]) 6.59 µM | EC50 (BJ [10]) 21.7 µM | AC50 [13] 2.3 µM | AC50 (A-375) 33.7 µM | AC50 [15] 8.7 µM | AC50 [16] 12.4 µM | AC50 [17] 7.12 µM | AC50 [18] 14.7 µM | AC50 [19] 9.16 µM
> 100 µM (not active): IC50 [5]

COc1ccc(Cn2c(/C=C/c3ccccc3)nc3ccccc32)cc1
active: IC50 [20] 4.02 µM | IC50 [21] 5.51 µM

COc1cc(C(=S)N2CCOCC2)ccc1OC(=O)/C=C/c1ccco1
> 100 µM (not active): EC50 [22]

O=C(Oc1c(-c2ccccc2)c(=O)n2c3c(cccc13)CC2)c1cccc([N+](=O)[O-])c1
active: EC50 [1] 12 µM | EC50 [23] 3.89 µM | EC50 [6] 12.3 µM | EC50 [7] 13 µM | EC50 [24] 9.78 µM

Oc1cc2c(cc1C(c1ccc3c(c1)OCO3)N1CCCCC1)OCO2 (stereo unspecified)
> 40 µM (not active): IC50 [25]
